Experimental data as given in ChEMBL document CHEMBL1201862, “PubChem BioAssay data set” (2004).
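Protocol summary: plate cells (96-well), add compound at 5 concentrations, incubate 48 h, interpolate endpoints linearly. GI50 = concentration required for 50% inhibition of growth.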 Calls of active or inactive are those of the source. Cut-off read from the data, not from the text of the source: active = GI50 up to about 1.1 µM and inactive = higher. Numbered stars: 1 amine (or outer) side, 2 acyl side, 3 side chain; on linkers, the order of the positions; unused ones are H or OH. Bridge positions count the residues as written; N and C are the ends. Square brackets hold non-standard residues; d marks the D form. Peptide text beside a SMILES is read from it. * marks the point of attachment. ξ: configuration not given here. X33 = O=C(C(CCCCNO[*:3])N[*:1])[*:2]; Fmoc = O=C(OCC1c2ccccc2-c2ccccc21)*; ξW = NC(Cc1c[nH]c2ccccc12)C(=O)O; ξP = O=C(O)C1CCCN1

Key:
Experiment in all cases: NCI-60 cell line screen, 48 h
[1] = tested on: CAKI-1
[2] = tested on: UACC-62
[3] = tested on: SR
[4] = tested on: ACHN
[5] = tested on: CCRF-CEM
[6] = tested on: OVCAR-5
[7] = tested on: IGROV-1
[8] = tested on: SF-539
[9] = tested on: A549
[10] = tested on: PC-3
[11] = tested on: U-251
[12] = tested on: DU-145
[13] = tested on: HCT-116
[14] = tested on: SK-MEL-5
[15] = tested on: NCI-H522
[16] = tested on: SNB-75
[17] = tested on: SK-MEL-2
[18] = tested on: LOX IMVI
[19] = tested on: RXF 393
[20] = tested on: OVCAR-3
[21] = tested on: HCC 2998
[22] = tested on: Malme-3M
[23] = tested on: OVCAR-4
[24] = tested on: RPMI-8226
[25] = tested on: T47D
[26] = tested on: SW-620
[27] = tested on: HCT-15
[28] = tested on: 786-0
[29] = tested on: NCI-H460
[30] = tested on: MOLT-4
[31] = tested on: SK-OV-3
[32] = tested on: MDA-MB-231
[33] = tested on: OVCAR-8
[34] = tested on: BT-549
[35] = tested on: Hs-578T
[36] = tested on: MCF7
[37] = tested on: SNB-19
[38] = tested on: HT-29
[39] = tested on: SF-268
[40] = tested on: MDA-MB-435
[41] = tested on: UACC-257
[42] = tested on: HOP-62
[43] = tested on: HOP-92
[44] = tested on: HL-60
[45] = tested on: NCI-H23
[46] = tested on: SK-MEL-28
[47] = tested on: UO-31
[48] = tested on: COLO 205
[49] = tested on: SF-295
[50] = tested on: M14
[51] = tested on: EKVX
[52] = tested on: TK-10
[53] = tested on: K562
[54] = tested on: NCI-H226
[55] = tested on: NCI/ADR-RES
[56] = tested on: KM12
[57] = tested on: SN12C
[58] = tested on: A498
[59] = tested on: MDA-N

NC(=O)CNC(=O)C1CCCN1C(=O)C1CCCCNOC(=O)CC[C@@H](NC(=O)OCC2c3ccccc3-c3ccccc32)C(=O)NC(Cc2c[nH]c3ccccc23)C(=O)N1 (stereo partly specified) (Fmoc-[dE][ξW][X33][ξP]G-NH2; ester 1-3)
GI50 [1]: > 100 µM (inactive) | GI50 [2]: > 100 µM (inactive) | GI50 [3]: > 100 µM (inactive) | GI50 [4]: > 100 µM (inactive) | GI50 [5]: > 100 µM (inactive) | GI50 [6]: 63.5 µM (inactive) | GI50 [7]: > 100 µM (inactive) | GI50 [8]: > 100 µM (inactive) | GI50 [9]: > 100 µM (inactive) | GI50 [10]: > 100 µM (inactive) | GI50 [11]: > 100 µM (inactive) | GI50 [12]: > 100 µM (inactive) | GI50 [13]: > 100 µM (inactive) | GI50 [14]: > 100 µM (inactive) | GI50 [15]: > 100 µM (inactive) | GI50 [16]: > 100 µM (inactive) | GI50 [17]: > 100 µM (inactive) | GI50 [18]: > 100 µM (inactive) | GI50 [19]: > 100 µM (inactive) | GI50 [20]: > 100 µM (inactive) | GI50 [21]: > 100 µM (inactive) | GI50 [22]: > 100 µM (inactive) | GI50 [23]: > 100 µM (inactive) | GI50 [24]: > 100 µM (inactive) | GI50 [25]: > 100 µM (inactive) | GI50 [26]: > 100 µM (inactive) | GI50 [27]: > 100 µM | GI50 [28]: > 100 µM (inactive) | GI50 [29]: > 100 µM (inactive) | GI50 [30]: > 100 µM (inactive) | GI50 [31]: > 100 µM (inactive) | GI50 [32]: 30.6 µM (inactive) | GI50 [33]: > 100 µM (inactive) | GI50 [34]: > 100 µM (inactive) | GI50 [35]: > 100 µM (inactive) | GI50 [36]: > 100 µM (inactive) | GI50 [37]: > 100 µM (inactive) | GI50 [38]: > 100 µM (inactive) | GI50 [39]: > 100 µM (inactive) | GI50 [40]: > 100 µM (inactive) | GI50 [41]: > 100 µM (inactive) | GI50 [42]: > 100 µM (inactive) | GI50 [43]: > 100 µM (inactive) | GI50 [44]: > 100 µM (inactive) | GI50 [45]: > 100 µM (inactive) | GI50 [46]: > 100 µM (inactive) | GI50 [47]: 20.7 µM (inactive) | GI50 [48]: > 100 µM (inactive) | GI50 [49]: > 100 µM (inactive) | GI50 [50]: 64.4 µM (inactive) | GI50 [51]: > 100 µM (inactive) | GI50 [52]: > 100 µM (inactive) | GI50 [53]: > 100 µM (inactive) | GI50 [54]: > 100 µM (inactive) | GI50 [55]: > 100 µM (inactive) | GI50 [56]: > 100 µM (inactive) | GI50 [57]: > 100 µM (inactive)

COc1cc(/C=C2\CCC/C(=C\c3ccc(OC(=O)CCCCC4CCSS4)c(OC)c3)C2=O)ccc1OC(=O)CCCCC1CCSS1 (stereo unspecified)
GI50 [58]: > 100 µM (inactive) | GI50 [2]: > 100 µM (inactive) | GI50 [4]: > 100 µM (inactive) | GI50 [5]: 91.2 µM (inactive) | GI50 [59]: > 100 µM (inactive) | GI50 [6]: > 100 µM (inactive) | GI50 [7]: > 100 µM (inactive) | GI50 [8]: > 100 µM (inactive) | GI50 [9]: > 100 µM (inactive) | GI50 [10]: > 100 µM (inactive) | GI50 [11]: > 100 µM (inactive) | GI50 [12]: > 100 µM (inactive) | GI50 [13]: > 100 µM (inactive) | GI50 [14]: > 100 µM (inactive) | GI50 [15]: > 100 µM (inactive) | GI50 [16]: > 100 µM (inactive) | GI50 [17]: > 100 µM (inactive) | GI50 [18]: > 100 µM (inactive) | GI50 [19]: > 100 µM (inactive) | GI50 [20]: > 100 µM (inactive) | GI50 [22]: > 100 µM (inactive) | GI50 [23]: > 100 µM (inactive) | GI50 [24]: > 100 µM (inactive) | GI50 [26]: > 100 µM (inactive) | GI50 [27]: > 100 µM | GI50 [28]: > 100 µM (inactive) | GI50 [29]: > 100 µM (inactive) | GI50 [30]: > 100 µM (inactive) | GI50 [31]: > 100 µM (inactive) | GI50 [32]: > 100 µM (inactive) | GI50 [33]: > 100 µM (inactive) | GI50 [34]: > 100 µM (inactive) | GI50 [35]: > 100 µM (inactive) | GI50 [36]: > 100 µM (inactive) | GI50 [37]: > 100 µM (inactive) | GI50 [38]: > 100 µM (inactive) | GI50 [39]: > 100 µM (inactive) | GI50 [40]: > 100 µM (inactive) | GI50 [41]: > 100 µM (inactive) | GI50 [42]: > 100 µM (inactive) | GI50 [44]: > 100 µM (inactive) | GI50 [45]: > 100 µM (inactive) | GI50 [46]: > 100 µM (inactive) | GI50 [47]: > 100 µM (inactive) | GI50 [48]: > 100 µM (inactive) | GI50 [49]: > 100 µM (inactive) | GI50 [50]: > 100 µM (inactive) | GI50 [51]: > 100 µM (inactive) | GI50 [52]: > 100 µM (inactive) | GI50 [53]: > 100 µM (inactive) | GI50 [54]: > 100 µM (inactive) | GI50 [55]: > 100 µM (inactive) | GI50 [56]: > 100 µM (inactive) | GI50 [57]: > 100 µM (inactive)
